Entries after “also recorded” stand apart in the source; their conditions may differ.
Assays:
SD rats = assay: MIA-induced osteoarthritis (OA) model in rats; type: in vivo
Procedure: SD rats, approximately 200 g, male. Purchased from Shanghai Bikai Animal Co., Ltd. Adaptive feeding was conducted for about 7 days.
3.1.1 Anesthesia: the rat was placed into the anesthesia box, the O2 gas source and the gas delivery pump were turned on, and the gas adjustment knob was rotated to set the ratio of O2 to isoflurane at 8:2. The anesthesia depth knob was adjusted: first the indicator was turned to 3 to induce deep anesthesia in the rat; during the subsequent surgical procedure, the indicator was adjusted to 1.5 to maintain anesthesia. The three-way valve was opened to deliver gas into both the anesthesia box and the rat anesthesia mask.
The syringe needle was inserted at a 45° angle to the plateau along the lateral side of the patellar ligament, as shown in the figure below. The Control group is injected with 50 µl of 0.9% sterile normal saline, while the other groups are injected with 50 µl of sterile normal saline containing 3 mg of MIA. After the procedure, the rat was removed, placed in a breeding cage, and irradiated with an incandescent lamp to help restore body temperature until the rat recovers from anesthesia.
The Control group was administered 5% DMSO + 35% PEG400 + 60% normal saline. The compounds were dissolved in a system consisting of 5% dimethyl sulfoxide (DMSO), 35% polyethylene glycol 400 (PEG 400), and 60% normal saline. The drug solutions were prepared on the evening one day before administration.
The rats were acclimated for 1 week and randomly divided into groups, with a total of 10 rats. The Control group was administered 5% DMSO + 35% PEG400 + 60% normal saline, while the other groups were given the test compounds dissolved in 5% DMSO + 35% PEG400 + 60% normal saline.
3.4.1. From Day 1 to Day 14 of the experiment, the rats were administered intragastrically once daily, with a gavage volume of 5 mL/kg. The Control group and Model group were given 5% DMSO + 35% PEG400 + 60% normal saline throughout the experiment, while the other groups were administered the corresponding drugs.
On Day 7 and Day14 of the experiment, behavioral and joint pain tests were performed on the rats. To minimize confounding factors, the tests were conducted 1 hour after administration at a fixed time, preventing variations in the rats' condition at different time points from affecting the experimental results. The rats were allowed to acclimate to the environment for 20 minutes before the start of the experiment. • (1) Observation of walking distance and rearing times within five minutes: the dimensions of the resin box were measured and a paper sheet of the corresponding size was prepared. 1 cm × 1 cm grids were drawn on the paper sheet. The paper sheet was sealed with a transparent tape to prevent damage from rat excrement. Then the paper sheet with 1 cm × 1 cm grids was placed into the transparent resin box, ensuring a flat bottom. A camera device was used to record the walking process and trajectory of the rat within 5 minutes, and the walking distance and rearing times of the rat were counted. • (2) Joint Pain Assessment: After fixing the rat and allowing it to calm down, its knee joint was gently bent. […] The knee joint pain severity in rats is reflected by the scores of leg withdrawal and vocalization. The joint pain assessment was performed every 5 seconds for a total of 5 times.
On Day 15 of the experiment, the rats were anesthetized, and blood was collected from their eyeballs. The serum was left to stand overnight at 4°C, centrifuged at 3600 rpm for 15 minutes at 4°C. The serum was aspirated and stored at -80°C. The rats were sacrificed by cervical dislocation. An incision was made along the knee joint on ice to remove fur, muscle, and other tissues. For each group, 5 rats were used; bilateral knee joints were dissected, and the color, roughness, and integrity of the femoral condyle surface were observed. The knee joint cartilage was then harvested and cryopreserved at -80°C. […]

hS1P1 = molecular target: T1, hS1P1 (Homo sapiens, UniProt P21453); assay: Tango β-arrestin recruitment luciferase assay, Tango-hS1P1-CHO; type: cell-based; conditions: β-arrestin recruitment; 20 h drug treatment; top 45 µM, 9 serial 5-fold dilutions; positive control 1 µM BAF-312; read-out: Tango-hS1P1-CHO EC50
T1 construct: expressed in transfected cells; host or cells: CHO
T1 sequence (P21453 whole entry): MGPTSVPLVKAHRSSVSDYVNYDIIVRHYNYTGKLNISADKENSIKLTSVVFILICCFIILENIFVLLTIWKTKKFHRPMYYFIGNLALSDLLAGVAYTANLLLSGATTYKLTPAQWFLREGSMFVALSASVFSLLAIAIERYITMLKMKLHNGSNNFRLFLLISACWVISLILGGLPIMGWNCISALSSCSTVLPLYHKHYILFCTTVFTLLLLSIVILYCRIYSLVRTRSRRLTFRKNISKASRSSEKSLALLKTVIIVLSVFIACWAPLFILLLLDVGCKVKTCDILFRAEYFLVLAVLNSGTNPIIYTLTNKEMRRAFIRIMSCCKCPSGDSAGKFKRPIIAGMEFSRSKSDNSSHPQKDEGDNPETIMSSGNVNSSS
Excerpt: (§1) The Tango assay detects ligand-dependent GPCR activity through the interaction between β-arrestin and GPCRs. […] The NTEV fragment and the tetracycline transactivator (tTA), an artificial transcription factor, are fused at the C-terminus of the GPCR, while the CTEV fragment is fused to human β-arrestin 2. To enhance the stability of the interaction between GPCR and β-arrestin, a short sequence from the C-terminus of the human arginine vasopressin receptor 2 (V2 tail) is inserted between the GPCR and NTEV. The V2 tail contains multiple GRK phosphorylation sites, which strengthen β-arrestin binding upon phosphorylation. The CTEV fragment carries the stabile point mutation S219P and is truncated at residue 221 to remove the autoinhibitory C-terminal tail. Meanwhile, β-arrestin 2 is truncated to lack the entire C-terminal tail (residues 383-410 deleted). This truncation confers robust stimulus-dependent receptor desensitization, thereby improving detection sensitivity compared with wild-type β-arrestin 2. The UAS reporter construct consists of upstream activating sequence (UAS) elements, a minimal CMV promoter, and a tTA-dependent luciferase reporter gene. Therefore, constructing Tango cells requires the co-transfection of the above three plasmids into host cells. Upon GPCR activation and β-arrestin recruitment, the TEV enzyme at the β-arrestin terminus cleaves tTA from the GPCR C-terminus. The released tTA initiates tTA-dependent luciferase transcription, and compound activity is ultimately determined by measuring luminescence intensity.
(§2) • 1) Tango cell line from was digested from the culture dish respectively. After cell counting, the cells were plated at a density of 10,000 cells per well with […] into a white opaque 96-well plate (add 60 µL D'Hanks to the surrounding wells), and incubated overnight (20 h) in a 5% CO2 incubator at 37°C. The cell density will reach approximately 90% the next day. • 2) After 20 h, 30 µL of serially diluted compound solution was added to each well. The control group was supplemented with 30 µL F12K complete medium. Each group had three replicate wells. • 3) Samples were collected after 20 h of drug treatment.
(§3) (All compounds were tested at a final concentration of 45 µM, with 9 serial dilutions at 5-fold intervals. 1 µM BAF-312 was used as the positive control for S1PR1, and 25 µM BAF-312 was used as the positive control for S1PR4.

hS1P4 = molecular target: T2, hS1P4 (Homo sapiens, UniProt O95977); assay: Tango β-arrestin recruitment luciferase assay, Tango-hS1P4-CHO; type: cell-based; conditions: β-arrestin recruitment; 20 h drug treatment; top 45 µM, 9 serial 5-fold dilutions; positive control 25 µM BAF-312; read-out: Tango-hS1P4-CHO EC50
T2 construct: expressed in transfected cells; host or cells: CHO
T2 sequence (O95977 1-384): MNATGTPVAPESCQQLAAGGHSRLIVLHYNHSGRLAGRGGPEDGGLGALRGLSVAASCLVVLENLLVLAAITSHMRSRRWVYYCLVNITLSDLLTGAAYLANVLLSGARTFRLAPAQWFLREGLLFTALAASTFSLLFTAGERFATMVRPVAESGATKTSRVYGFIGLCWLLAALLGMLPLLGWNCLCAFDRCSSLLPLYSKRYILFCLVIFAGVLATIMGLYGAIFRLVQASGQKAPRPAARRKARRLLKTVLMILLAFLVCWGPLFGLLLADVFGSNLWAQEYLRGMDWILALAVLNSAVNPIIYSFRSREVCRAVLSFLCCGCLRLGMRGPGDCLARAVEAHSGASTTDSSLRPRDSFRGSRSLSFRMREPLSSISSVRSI
Excerpt: as §1, §2, §3

[1] = DAY7, diclofenac sodium 2.5 mg/kg, vs Model group

SMILES	EC50 (hS1P1)	EC50 (hS1P4)	other results
O=C(O)Cc1ccccc1Nc1c(Cl)cccc1Cl [diclofenac sodium, reference compound]			five-minute walking distance (SD rats; [1]): increased significantly; pain index (SD rats; [1]): significantly decreased; gross observation of knee joint femoral condyle cartilage (SD rats; Day 15 dissection, 5 rats per group): knee cartilage in most rats became smooth and glossy; also recorded: cartilage of most rat knee joints became smooth and bright; serum IL-10 level (SD rats; Elisa, vs Model group): significantly increased; OARSI score (severity of knee osteoarthritis) (SD rats; diclofenac sodium 2.5 mg/kg, vs Model group): significantly milder than that in the Model group; Safranin O-Fast Green staining of knee joints (SD rats; vs Model group): enhanced Safranin O staining
CCc1cc(/C(C)=N/OCc2ccc(-c3cncnc3)c(C)c2)ccc1CN1CCC(C(=O)O)CC1 [Compound 82, (E)-1-(2-ethyl-4-(1-(((3-methyl-4-(pyrimidin-5-yl)benzyl)oxy)imino)ethyl)benzyl)piperidine-4-carboxylic acid]	> 10000 nM	42.7 ± 2.28 nM	
C/C(=N\OCc1ccc(C2CCCCC2)cc1)c1ccc(CN2CC(C(=O)O)C2)cc1 [Compound 1]	699 nM	2970 nM	
CCc1cc(/C(C)=N/OCc2ccc(C3CCCCC3)cc2)ccc1CN1CC(C(=O)O)C1 [Compound 3]	578 nM	2160 nM	
CCc1cc(/C(C)=N/OCc2ccc(C)c(C(F)(F)F)c2)ccc1CN1CC(C(=O)O)C1 [Compound 14, (E)-1-(2-ethyl-4-(1-((4-methyl-3-(trifluoromethyl)benzyl)oxy)imino)ethyl)azetidine-3-carboxylic acid]	5990 nM	3660 nM	

More lines, in order of falling EC50 (hS1P1), values ahead:

EC50 (hS1P1)	EC50 (hS1P4)	SMILES	other results
508 nM	2500 nM	C/C(=N\OCc1ccc(C2CCCCC2)c(C(F)(F)F)c1)c1ccc(CN2CCCC(C(=O)O)C2)cc1 (stereo not shown) [Compound 7]	
455 nM	2350 nM	C/C(=N\OCc1ccc(C2CCCCC2)c(C(F)(F)F)c1)c1ccc(CNC2CCCC(C(=O)O)C2)cc1 (stereo not shown) [Compound 9, (E)-3-((4-((1-((4-cyclohexyl-3-(trifluoromethyl)benzyl)oxy)imino)ethyl)benzyl)amino)cyclohexane-1-carboxylic acid]	
104 nM	3.79 nM	CCc1cc(/C(C)=N/OCc2ccc(-c3ccccc3)c(F)c2)ccc1CN1CC[C@H](C(=O)O)C1 [Compound 35, (S, E)-1-(2-ethyl-4-(1-(((2-fluoro-[1,1'-biphenyl]-4-yl)methoxy)imino)ethyl)benzyl)pyrrolidine-3-carboxylic acid]	
86.9 nM	2.4 nM	CCc1cc(/C(C)=N/OCc2ccc(-c3ccc(F)cc3)c(C)c2)ccc1CN1CC[C@H](C(=O)O)C1 [Compound 34, (S, E)-1-(2-ethyl-4-(1-(((4'-fluoro-2-methyl-[1,1'-biphenyl]-4-yl)methoxy)imino)ethyl)benzyl)pyrrolidine-3-carboxylic acid]	
